Results: paper PMC8020795 (Proceedings of the National Academy of Sciences of the …, 2021)

Legend:
[1] = Pharmacokinetics after SC administration; conditions: 6 mg/kg
Protocol: Pharmacokinetics and toxicological studies
Male C57BL/6 mice, each weighing 23.4–25.4 g, were quarantined for 1 week before drug treatment. Compounds dissolved in 100% saline were individually given to mice (n = 3) subcutaneously (6 mg/kg; nonfasted mice). Blood samples were collected via cardiac puncture at defined time points (0 (immediately before dosing), 0.03, 0.08, 0.25, 0.5, 1, 2, and 4 h after dosing) and then stored at −80 °C. The volume of the dosing solution given was 100 µL for each mouse. The plasma samples were analyzed by liquid chromatography– tandem mass spectrometry (LC–MS/MS), and the data were calculated by a standard noncompartmental method using the Kinetica software program (InnaPhase). […]

[2] = Metabolic stability in liver microsomes; format: in vitro ADME; conditions: mouse, rat, dog, and human
Text: Figure S4. The metabolic stabilities of BPRCX807 in liver microsomes. BPRCX807 is […]

[3] = target: T1, hERG (human K+ channel) (Homo sapiens, UniProt Q12809); assay: hERG patch-clamp assay (hERG-CHO, automated patch-clamp); format: cell-based
T1 construct: host or cells: CHO (hERG-CHO)
Text: page 16: Table: List of genes examined by real-time PCR and the primer sequences used. Genes Forward primers Reverse primers Slug [NT] Fn1 [NT] Cdh2 […] Foxc2 [NT] Zeb1 [NT] Zeb2 [NT] Twist1 [NT] Cdh1 [NT] Mta3 [NT] Cldn3 [NT] Cldn5 [NT] β-actin […] [NT] Off-target standard assays Methods employed in this study have been adapted from the scientific literature to maximize reliability and reproducibility. Reference standards were run as an integral part of each assay to ensure the validity of the results obtained. Radioligand binding Assays were performed under conditions described in the accompanying "Methods" section of this report by Eurofins Panlabs, Inc (Taipei, Taiwan, ROC). hERG patch-clamp assay BPRCX807 were tested in the hERG (hERG-CHO, automated patch-clamp) assay and determined at Eurofins Panlabs (Missouri, USA). The experiment was accepted in accordance with Eurofins validation Standard Operating Procedure. Selectivity Screening of various chemokine receptors The results were performed by Eurofins DiscoverX (Fremont, California, USA). The S15

[4] = test system: orthotopic HCA-1 tumors; assay: Orthotopic HCA-1 HCC model; format: in vivo, C3H mice; conditions: treatment alone; for Effect on tumor growth: 15 mg/kg/d SC minipump 14 d
Protocol: (§1) In vivo hepatocellular carcinoma treatment studies […]
(§2) mouse PD-1 (200 µg/mouse; BioXcell, BE0146). The therapeutic efficacy and the changes in immune cells were analyzed after two weeks of treatment. The tumor volume was calculated with the following formula: volume = width × length × height/2. […]
Hematoxylin and Eosin staining
Lung tissue was cut into small pieces and fixed in 4% PFA (in PBS) overnight before being embedded in paraffin wax. The sections were then stained with hematoxylin and eosin (H&E) and observed with an inverted microscope (IX83, Olympus, Japan).
HCA-1 tumor-bearing mice were anesthetized, perfused via intracardiac injection with PBS and then sacrificed. Tumor tissues were collected and harvested in enzyme-containing DMEM cell culture medium (1.5 mg/mL of collagenase type 1A and hyaluronidase; Sigma).
The tissues were cut and ground into smaller pieces and then digested for 1 h at 37 °C to form suspensions of single tumor cells. The suspensions were filtered through a 70-µm cell strainer (Corning, Manassas, VA), and the cells were then incubated with rat anti-mouse CD16/CD32 mAbs to block Fc receptors. After washing 3 times and resuspending in cold flow buffer (1% BSA, 0.1% NaN3 in PBS), the single-cell suspensions were incubated with monoclonal anti-mouse F4/80-PE (eBiosciences, San Diego, CA), 7-AAD, CD3e-APC, CD8a-PE-Cy7, CD45-FITC, CD4-PE (BD Biosciences, East Rutherford, NJ), CD86-APC-

[5] = test system: orthotopic JHH-7 tumors; assay: Orthotopic JHH-7 HCC model; format: in vivo, nude mice; conditions: treatment alone, 15 mg/kg/d SC minipump 14 d
Protocol: as §1, §2

[6] = SC, mice, n = 3
[7] = test system: HCA-1 cells; assay: Western blot of phospho-ERK and phospho-AKT after CXCL12 stimulation; format: cell-based, murine
Protocol: (§3) Western blotting was conducted by following standard procedures. HCA-1 or JHH-7 cells (10^5 cells per well) were seeded in 12-well plates (Costar, IL), incubated for 12 h and […]
(§4) containing (100 ng/mL) serum-free medium. After 24 h, the cells were lysed in RIPA buffer on ice for 30 min, and samples were collected and loaded with 4× Laemmli Sample buffer (Bio-Rad, Hercules, CA). The samples were separated on a 10% SDS-PAGE gels and transferred to PVDF membranes. After blocking with skim milk for 1 h, the membranes were incubated at 4°C overnight with primary antibodies against p -AKT, AKT, p-ERK, ERK (Cell Signaling, Danvers, MA) or β-actin (Sigma-Aldrich, St. Louis, MO) before incubation with HRP-conjugated secondary antibodies (Antibodies Inc., Davis, CA) for 1 h. […]
(§5) Total RNA was extracted from HCA-1 cells using the RNeasy Mini Kit (Qiagen, CA, USA). cDNAs were synthesized using the High-Capicity cDNA Reverse Transcription Kit […]
(§6) Biosystems, CA, USA) on a QPCR System. The comparative threshold cycle method was used to calculate fold change in gene expression, which was normalized to β-actin as a […]

[8] = test system: JHH-7 cells; assay: as above; format: cell-based, human
Protocol: as §3, §4, §5, §6

[9] = target: CXCR4 (Homo sapiens, UniProt P61073); set-up: expressed in transfected cells; host or cells: HEK293T; conditions: screening hit; read-out: IC50 (binding affinity toward CXCR4 receptors); cited from earlier work
[10] = male, C57BL/6, mouse, in vivo, sc

T1 sequence (Q12809 whole entry): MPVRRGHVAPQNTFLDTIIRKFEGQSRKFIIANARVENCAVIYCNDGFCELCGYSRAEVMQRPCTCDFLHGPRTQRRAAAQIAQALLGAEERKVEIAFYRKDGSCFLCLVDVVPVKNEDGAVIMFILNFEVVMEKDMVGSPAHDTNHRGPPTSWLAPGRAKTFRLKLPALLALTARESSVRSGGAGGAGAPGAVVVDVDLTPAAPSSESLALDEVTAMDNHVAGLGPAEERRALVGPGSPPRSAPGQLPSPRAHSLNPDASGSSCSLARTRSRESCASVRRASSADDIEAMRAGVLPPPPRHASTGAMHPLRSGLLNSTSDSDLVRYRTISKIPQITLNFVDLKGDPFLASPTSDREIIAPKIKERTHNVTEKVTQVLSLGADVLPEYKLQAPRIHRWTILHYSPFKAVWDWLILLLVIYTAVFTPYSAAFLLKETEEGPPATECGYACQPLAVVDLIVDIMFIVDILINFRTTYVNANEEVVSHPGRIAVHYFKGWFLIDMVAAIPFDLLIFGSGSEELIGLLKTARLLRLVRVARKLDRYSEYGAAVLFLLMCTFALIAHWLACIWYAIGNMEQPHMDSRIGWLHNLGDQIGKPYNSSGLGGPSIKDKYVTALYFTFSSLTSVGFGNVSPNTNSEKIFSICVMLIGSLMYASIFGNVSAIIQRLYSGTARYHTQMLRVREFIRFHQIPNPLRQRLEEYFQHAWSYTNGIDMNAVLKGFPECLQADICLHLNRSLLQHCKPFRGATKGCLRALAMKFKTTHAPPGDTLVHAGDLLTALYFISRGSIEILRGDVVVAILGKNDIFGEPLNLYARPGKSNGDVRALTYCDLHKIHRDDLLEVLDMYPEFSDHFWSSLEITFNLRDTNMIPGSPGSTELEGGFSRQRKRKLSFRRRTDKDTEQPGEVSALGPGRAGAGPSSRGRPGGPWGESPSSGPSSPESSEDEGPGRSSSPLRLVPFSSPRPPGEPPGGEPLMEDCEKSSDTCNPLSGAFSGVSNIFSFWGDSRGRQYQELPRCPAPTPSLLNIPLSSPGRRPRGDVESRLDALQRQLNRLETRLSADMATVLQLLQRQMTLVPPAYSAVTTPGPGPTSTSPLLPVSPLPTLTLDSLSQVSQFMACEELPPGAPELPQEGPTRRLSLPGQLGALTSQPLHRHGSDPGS
Sequence of CXCR4 (P61073 whole entry): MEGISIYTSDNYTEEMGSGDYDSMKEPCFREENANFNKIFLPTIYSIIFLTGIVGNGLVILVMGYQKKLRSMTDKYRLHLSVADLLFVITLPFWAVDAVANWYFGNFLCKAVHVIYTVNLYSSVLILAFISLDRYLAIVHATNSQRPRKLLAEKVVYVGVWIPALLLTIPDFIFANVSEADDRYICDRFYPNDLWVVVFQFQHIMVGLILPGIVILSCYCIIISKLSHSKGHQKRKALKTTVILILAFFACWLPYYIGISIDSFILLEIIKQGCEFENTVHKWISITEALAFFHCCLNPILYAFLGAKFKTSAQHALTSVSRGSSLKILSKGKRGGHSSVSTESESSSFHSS

## c1cc(CN2CCCNCCNCCCNCC2)ccc1CN1CCCNCCNCCCNCC1 [AMD3100, reference compound]
[1]; SC, mice, n = 3
  AUC0–4 h: 7,152 ± 135 ng/mL·h
[1]; [10]
  Cmax: 6200 ng/mL
  half-life: 1 h
[2]
  Metabolic stability in liver microsomes: Stable
[3]
  IC50: > 100000 nM
[4]
  Effect on tumor growth: no significant effect on tumor growth
[4]; day 24
  Lung metastasis (number of lung nodules): reduced
[5]
  Effect on tumor growth: no significant effect on tumor growth
[6]
  Maximum tolerated dose: 15 mg/kg

## NCCCCN(Cc1nc2ccccc2[nH]1)[C@H]1CCCc2cccnc21 [AMD11070, reference compound]
[7]
  CXCL12-mediated cell signaling (phospho-ERK, phospho-AKT): moderately inhibited
[8]
  CXCL12-mediated cell signaling (phospho-ERK, phospho-AKT): moderately inhibited

## Cc1cc(NC2CCN(C(=O)CCNCC(=O)O)CC2)nc(NCc2cn(CCCNCCCNC3CCCCC3)nn2)n1 [BPRCX714, reference compound]
[4]
  Effect on tumor growth: no significant effect on tumor growth
[5]
  Effect on tumor growth: no significant effect on tumor growth

## CCN(CC)CCCC(C)Nc1cc(/C=C/c2ccc([N+](=O)[O-])cc2)nc2cc(OC)ccc12 (centres unmarked) [CSV18742]
[9]
  IC50: 2130 ± 110 nM

## CNC(=O)c1cc(Oc2ccc(NC(=O)Nc3ccc(Cl)c(C(F)(F)F)c3)cc2)ccn1 [sorafenib, reference compound]
[4]
  F4/80+ TAMs infiltration into tumor (flow cytometry): substantially increased
[4]; day 24
  Intratumoral mean vessel density (MVD, CD31+ staining): significantly decrease intratumoral MVD
  Lung metastasis (number of lung nodules): barely reduced
